Measured values: the supplement of paper PMC10627819

Tests used:
[1] = test system: S. pneumoniae D39V; experiment: Bliss interaction score (quartile over a dose matrix) (fitness difference); higher = more antagonism (negative = synergy)
In short: (§1)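 The Bliss score is observed minus expected fitness, where expected fitness is the product of the single-drug fitness values inferred from the combination data. Fitness is the OD595 at the onset of stationary phase over the plate's robust no-drug mean, capped at 1. Scores are summarised by quartiles over technical, biological and donor/recipient replicates.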

[2] = test system: S. aureus DSM 20231; experiment: as above
In short: as §1

[3] = test system: B. subtilis 168; experiment: as above
In short: as §1

[4] = test system: S. aureus Newman; experiment: as above
In short: as §1

[5] = test system: S. aureus DSM 20231; experiment: fitness (endpoint OD595 vs no drug) (fraction); higher = more growth
In short: (§2)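 Fitness was measured as bacterial growth in 384-well plates inoculated at OD595 0.01 (30 µl, or 55 µl for S. pneumoniae). Media were TSB, LB Lennox or CY, at 37 °C. OD595 was read every 30 min for 14 h and background-subtracted against the first reading. Fitness is OD595 at the transition into stationary phase divided by the robust mean of no-drug control wells, capped at 1.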

[6] = test system: B. subtilis 168; experiment: as above
In short: as §2

[7] = test system: S. pneumoniae D39V; experiment: as above
In short: as §2

[8] = test system: S. aureus Newman; experiment: as above
In short: as §2
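For Bliss interaction score (quartile over a dose matrix) in this document: first quartile when negative (synergy) and third quartile when positive (antagonism).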
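For fitness (endpoint OD595 vs no drug) in this document: OD595 on entry to stationary phase over no-drug wells; at most 1.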

CO/N=C(\C(=O)N[C@@H]1C(=O)N2C(C(=O)O)=C(COC(C)=O)CS[C@H]12)c1csc(N)n1 [Cefotaxime] + COc1cc(Cc2cnc(N)nc2N)cc(OC)c1OC [Trimethoprim]
Conditions	Bliss interaction score
[1]	0.224
[2]	0.0326
[3]	0.0814
[4]	-0.0597

one replicate
Conditions	fitness
[5], first compound 0.039 µg/mL, partner 0.125 µg/mL	0.663
[5], first compound 0.312 µg/mL, partner 0.125 µg/mL	0.498
[5], first compound 0.312 µg/mL, partner 0.25 µg/mL	0.384
[5], first compound 0.312 µg/mL, partner 0.5 µg/mL	0.0438
[6], first compound 0.00775 µg/mL, partner 0.125 µg/mL	0.309
[6], first compound 0.00775 µg/mL, partner 0.25 µg/mL	0.288
[6], first compound 0.00775 µg/mL, partner 0.5 µg/mL	0.269
[6], first compound 0.0155 µg/mL, partner 0.125 µg/mL	0.262
[6], first compound 0.0155 µg/mL, partner 0.25 µg/mL	0.181
[6], first compound 0.0155 µg/mL, partner 0.5 µg/mL	0.0769
[6], first compound 0.031 µg/mL, partner 0.125 µg/mL	0.149
[6], first compound 0.031 µg/mL, partner 0.25 µg/mL	0.0914
[6], first compound 0.031 µg/mL, partner 0.5 µg/mL	0.0904
[6], first compound 0.0625 µg/mL, partner 0.1 µg/mL	0.47
[6], first compound 0.0625 µg/mL, partner 0.125 µg/mL	0.432
[6], first compound 0.0625 µg/mL, partner 0.2 µg/mL	0.454
[6], first compound 0.0625 µg/mL, partner 0.4 µg/mL	0.402
[6], first compound 0.125 µg/mL, partner 0.1 µg/mL	0.364
[6], first compound 0.125 µg/mL, partner 0.125 µg/mL	0.345
[6], first compound 0.125 µg/mL, partner 0.2 µg/mL	0.336
[6], first compound 0.125 µg/mL, partner 0.4 µg/mL	0.296
[6], first compound 0.25 µg/mL, partner 0.1 µg/mL	0.109
[6], first compound 0.25 µg/mL, partner 0.125 µg/mL	0.274
[6], first compound 0.25 µg/mL, partner 0.2 µg/mL	0.223
[6], first compound 0.25 µg/mL, partner 0.4 µg/mL	0.127
[6], first compound 0.5 µg/mL, partner 1 µg/mL	0.104
[6], first compound 0.5 µg/mL, partner 2 µg/mL	0.129
[6], first compound 1 µg/mL, partner 1 µg/mL	0.0524
[6], first compound 1 µg/mL, partner 2 µg/mL	0.0575
[6], first compound 2 µg/mL, partner 1 µg/mL	0.0669
[6], first compound 2 µg/mL, partner 2 µg/mL	0.0449

fitness
Conditions	partner 0.125 µg/mL	partner 0.25 µg/mL	partner 0.5 µg/mL	partner 1 µg/mL
[5], first compound 0.039 µg/mL	–	0.558	0.14	0.047
[5], first compound 0.078 µg/mL	0.584	0.536	0.207	0.0436
[5], first compound 0.156 µg/mL	0.605	0.57	0.299	0.0551
[6], first compound 0.0625 µg/mL	–	0.386	0.363	–
[6], first compound 0.125 µg/mL	–	0.285	0.27	–
[6], first compound 0.25 µg/mL	–	0.217	0.19	–
[6], first compound 0.5 µg/mL	–	–	0.125	–
[6], first compound 1 µg/mL	–	–	0.108	–
[6], first compound 2 µg/mL	–	–	0.0672	–

O=C(O)c1cn(C2CC2)c2cc(N3CCNCC3)c(F)cc2c1=O [Ciprofloxacin] + Cc1ncc([N+](=O)[O-])n1CCO [Metronidazole]
Conditions	Bliss interaction score
[1]	0.0544
[2]	0.0471
[3]	0.0696
[4]	0.0782

Conditions	fitness
[6], first compound 0.0098 µg/mL, partner 0.625 µg/mL	0.951
[6], first compound 0.0098 µg/mL, partner 1.25 µg/mL	0.922
[6], first compound 0.0098 µg/mL, partner 2.5 µg/mL	0.89
[6], first compound 0.0195 µg/mL, partner 0.625 µg/mL	0.771
[6], first compound 0.0195 µg/mL, partner 1.25 µg/mL	0.75
[6], first compound 0.0195 µg/mL, partner 2.5 µg/mL	0.727
[6], first compound 0.039 µg/mL, partner 1.25 µg/mL	0.29
[6], first compound 0.039 µg/mL, partner 2.5 µg/mL	0.222
[7], first compound 0.125 µg/mL, partner 1.073 µg/mL	0.935
[7], first compound 0.125 µg/mL, partner 1.25 µg/mL	0.98
[7], first compound 0.125 µg/mL, partner 2.145 µg/mL	0.894
[7], first compound 0.125 µg/mL, partner 2.5 µg/mL	0.987
[7], first compound 0.125 µg/mL, partner 4.29 µg/mL	0.916
[7], first compound 0.125 µg/mL, partner 5 µg/mL	0.983
[7], first compound 0.25 µg/mL, partner 1.073 µg/mL	0.923
[7], first compound 0.25 µg/mL, partner 2.145 µg/mL	0.895
[7], first compound 0.25 µg/mL, partner 4.29 µg/mL	0.892
[7], first compound 0.5 µg/mL, partner 1.073 µg/mL	0.711
[7], first compound 0.5 µg/mL, partner 2.5 µg/mL	0.781
[7], first compound 0.5 µg/mL, partner 4.29 µg/mL	0.69
[7], first compound 0.5 µg/mL, partner 5 µg/mL	0.81
[8], first compound 0.0375 µg/mL, partner 0.625 µg/mL	0.649
[8], first compound 0.0375 µg/mL, partner 1.25 µg/mL	0.694
[8], first compound 0.0375 µg/mL, partner 2.5 µg/mL	0.693
[8], first compound 0.075 µg/mL, partner 0.625 µg/mL	0.725
[8], first compound 0.075 µg/mL, partner 2.5 µg/mL	0.732
[8], first compound 0.15 µg/mL, partner 2.5 µg/mL	0.0713

fitness, one replicate
Conditions	partner 0.781 µg/mL	partner 1.25 µg/mL	partner 1.562 µg/mL	partner 2.5 µg/mL	partner 3.124 µg/mL	partner 5 µg/mL
[7], first compound 0.25 µg/mL	–	0.903	–	0.911	–	0.902
[8], first compound 0.0375 µg/mL	0.653	–	0.663	–	0.644	–
[8], first compound 0.075 µg/mL	0.648	–	0.736	–	0.703	–
[8], first compound 0.15 µg/mL	0.0339	–	0.0507	–	0.0416	–

O=C(O)c1cn(C2CC2)c2cc(N3CCNCC3)c(F)cc2c1=O [Ciprofloxacin] + O=C(O[C@@H]1Cc2c(O)cc(O)cc2O[C@@H]1c1cc(O)c(O)c(O)c1)c1cc(O)c(O)c(O)c1 [EGCG]
Conditions	Bliss interaction score
[1]	-0.0717
[2]	0.0949
[3]	0.149
[4]	-0.0544

fitness
Conditions	partner 6.25 µg/mL	partner 12.5 µg/mL	partner 25 µg/mL	partner 50 µg/mL
[6], first compound 0.0098 µg/mL	0.878	–	–	–
[6], first compound 0.0195 µg/mL	0.741	0.54	0.375	–
[6], first compound 0.039 µg/mL	–	0.35	0.295	–
[7], first compound 0.125 µg/mL	–	0.931	0.907	0.971
[7], first compound 0.25 µg/mL	–	0.796	0.889	0.69
[8], first compound 0.0375 µg/mL	–	0.666	0.557	0.544
[8], first compound 0.075 µg/mL	–	0.55	0.534	0.609
[8], first compound 0.15 µg/mL	–	0.0805	0.0356	0.053

COc1cccc2c1C(=O)c1c(O)c3c(c(O)c1C2=O)C[C@@](O)(C(=O)CO)C[C@@H]3O[C@H]1C[C@H](N)[C@H](O)[C@H](C)O1 [Doxorubicin] + CC(C1CCC(C(O1)OC2C(CC(C(C2O)OC3C(C(C(CO3)(C)O)NC)O)N)N)N)NC [Gentamicin]
main component drawn
Conditions	Bliss interaction score
[1]	0.0449
[2]	0.037
[3]	-0.258
[4]	-0.0672

main component drawn
Conditions	fitness
[6], first compound 0.625 µg/mL, partner 0.0625 µg/mL	0.905
[6], first compound 0.625 µg/mL, partner 0.25 µg/mL	0.079
[6], first compound 1.25 µg/mL, partner 0.0625 µg/mL	0.804
[6], first compound 1.25 µg/mL, partner 0.25 µg/mL	0.086
[6], first compound 2.5 µg/mL, partner 0.25 µg/mL	0.0548
[7], first compound 0.25 µg/mL, partner 2 µg/mL	0.919
[7], first compound 0.25 µg/mL, partner 4 µg/mL	0.919
[7], first compound 0.25 µg/mL, partner 8 µg/mL	0.882
[7], first compound 0.5 µg/mL, partner 2 µg/mL	0.937
[7], first compound 0.5 µg/mL, partner 4 µg/mL	0.943
[7], first compound 0.5 µg/mL, partner 8 µg/mL	0.848
[7], first compound 1 µg/mL, partner 2 µg/mL	0.806
[7], first compound 1 µg/mL, partner 4 µg/mL	0.822
[7], first compound 1 µg/mL, partner 8 µg/mL	0.76
[8], first compound 0.625 µg/mL, partner 0.375 µg/mL	0.753
[8], first compound 0.625 µg/mL, partner 0.5 µg/mL	0.841
[8], first compound 0.625 µg/mL, partner 0.75 µg/mL	0.778
[8], first compound 0.625 µg/mL, partner 1 µg/mL	0.937
[8], first compound 0.625 µg/mL, partner 1.5 µg/mL	0.777
[8], first compound 0.625 µg/mL, partner 2 µg/mL	0.875
[8], first compound 1.25 µg/mL, partner 0.375 µg/mL	0.794
[8], first compound 1.25 µg/mL, partner 0.5 µg/mL	0.783
[8], first compound 1.25 µg/mL, partner 0.75 µg/mL	0.784
[8], first compound 1.25 µg/mL, partner 1 µg/mL	0.826
[8], first compound 1.25 µg/mL, partner 1.5 µg/mL	0.793
[8], first compound 1.25 µg/mL, partner 2 µg/mL	0.887
[8], first compound 2.5 µg/mL, partner 0.375 µg/mL	0.774
[8], first compound 2.5 µg/mL, partner 0.5 µg/mL	0.734
[8], first compound 2.5 µg/mL, partner 0.75 µg/mL	0.788
[8], first compound 2.5 µg/mL, partner 1 µg/mL	0.779
[8], first compound 2.5 µg/mL, partner 1.5 µg/mL	0.796
[8], first compound 2.5 µg/mL, partner 2 µg/mL	0.809
